Measurements published in patent publication US4366311A, “Novel dianemycin derivative” (Taisho Pharmaceutical Co., Ltd., priority 1980, dated 1982).
Structures can show the parent of a compound that is named as a salt.

Experiments:
[1] = test system: Streptococcus faecalis ATCC 8043; assay: MIC, antibacterial effects (Test Example 2); type: cell-based; conditions: Enterococcus faecalis, ATCC8043, infusion agar medium, read-out: MIC (Minimum Inhibitory Concentration)
Method: (§1) MIC (Minimum Inhibitory Concentration) was measured according to the method specified by the Chemotherapeutic Society using a heat infusion agar medium containing compound I sodium salt, to examine antibacterial effects of the compound.

[2] = test system: Escherichia coli NIHJ C-2; assay: MIC, antibacterial effects (Test Example 2); type: cell-based; conditions: NIHJC2, infusion agar medium, read-out: MIC (Minimum Inhibitory Concentration)
Method: as §1

[3] = test system: Staphylococcus epidermidis IID 866; assay: MIC, antibacterial effects (Test Example 2); type: cell-based; conditions: IID866, infusion agar medium, read-out: MIC (Minimum Inhibitory Concentration)
Method: as §1

[4] = test system: Staphylococcus aureus Smith; assay: MIC, antibacterial effects (Test Example 2); type: cell-based; conditions: infusion agar medium, read-out: MIC (Minimum Inhibitory Concentration)
Method: as §1

[5] = test system: Staphylococcus epidermidis TPR-25; assay: MIC, antibacterial effects (Test Example 2); type: cell-based; conditions: TPR25, infusion agar medium, read-out: MIC (Minimum Inhibitory Concentration)
Method: as §1

[6] = test system: Staphylococcus aureus TPR-23; assay: MIC, antibacterial effects (Test Example 2); type: cell-based; conditions: TPR23, infusion agar medium, read-out: MIC (Minimum Inhibitory Concentration)
Method: as §1

Bacillus licheniformis = assay: MIC, antibacterial effects (Test Example 2); type: cell-based; conditions: infusion agar medium, read-out: MIC (Minimum Inhibitory Concentration)
Method: as §1

[7] = test system: Staphylococcus aureus FDA 209 P; assay: MIC, antibacterial effects (Test Example 2); type: cell-based; conditions: FDA209, infusion agar medium, read-out: MIC (Minimum Inhibitory Concentration)
Method: as §1

[8] = test system: Bacillus subtilis ATCC 6633; assay: MIC, antibacterial effects (Test Example 2); type: cell-based; conditions: ATCC6633, infusion agar medium, read-out: MIC (Minimum Inhibitory Concentration)
Method: as §1

[9] = Acute toxicity, LD50 in mice (Test Example 3); design: species or system mice (ddY strain, 4-week old); conditions: mouse, in vivo, ip; ddY male mice, intraperitoneal, mortality over 7 consecutive days; 5% gum arabic in saline
Method: Compound I sodium salt and the control drug of dianemycin sodium salt were respectively suspended in a 5% solution of gum arabic in saline solution.
Two groups of 7 ddY strain male mice (4-week old) were intraperitoneally injected with each of the above-described drug suspension. LD50 values (mg/kg) of the compounds were determined from the total mortality per group for 7 consecutive days to examine the acute toxicity.

toxoplasma RH strain = assay: Anti-toxoplasma effect in cultivated mouse macrophage (Test Example 1); type: cell-based, in macrophage of normal ICR mice; conditions: 0.1 ppm compound in medium, 37° C., 48 hours
Method: (§2) Normal ICR mice were intraperitoneally injected with 1 ml of a sterilized 0.2% solution of glycogen in saline solution and, after 5 days, intraperitoneally injected with 5 ml of a Hank's solution containing heparin to collect macrophage.
(§3) After centrifugation and washing, the macrophage was diluted with a medium of TC-199 containing 20% of calf serum so that the resulting solution contained about 10^6 cells/ml of macrophage. 1 ml of this suspension was pipetted into a cultivation Petri dish containing circular cover glass of 1.5 cm in diameter, followed by cultivation for 24 hours in an incubator containing 5% of carbon dioxide.
(§4) 5×10^5 toxiplasma RH strain collected on the 2nd day after intraperitoneal infection of mice were brought into contact with the thus cultivated macrophage at 37° C. for about 1 hour, and non-infectingtoxiplasma RH strain were washed away using the same medium followed by adding thereto the same medium.
(§5) A drug-containing group was prepared by adding compound I sodium salt to the medium so that the final concentration of the compound became 0.1 ppm.
(§6) Medical effects were evaluated as follows; After cultivation at 37° C. for 48 hours, May-Grunwald/Giemsa double straining was conducted to determine the percentage of macrophage cells containing therein 1 to 5 toxoplasma or 6 or more toxoplasma, thus the infected control group was compared with the drug-added group.

macrophage = assay: Cytotoxic effect on macrophage, observation under an optical microscope; type: cell-based, ICR mice; conditions: 0.1 ppm compound in medium
Method: as §2, §3, §4, §5, §6

Compound	MIC [1]	MIC [2]	MIC [3]	MIC [4]	MIC [5]	MIC [6]	MIC (Bacillus licheniformis)	MIC [7]	MIC [8]	LD50 at 168 h [9]	Percentage of Toxoplasma-infected Macrophage, 1 to 5 Toxoplasma/cell (toxoplasma RH strain; infected control group 30.8)	Percentage of Toxoplasma-infected Macrophage, 6 or more Toxoplasma/cell (toxoplasma RH strain; infected control group 31.8)	cytotoxic effect (macrophage)
C/C(=C\C(C)C1OC2(CCC(C)(C3CC(O)C(C)C4(OC(C5OC(O)(CO)C(C)CC5C)CC4C)O3)O2)CC(O)C1C)C(=O)C(C)CC(C)C(=O)O (centres unmarked) [Compound I sodium salt]	50 µg/mL	> 200 µg/mL	50 µg/mL	50 µg/mL	50 µg/mL	50 µg/mL	12.5 µg/mL	25 µg/mL	25 µg/mL	191 mg/kg	0%	0%	no cytotoxic effect
COC1CCC(OC2CC(C3(C)CCC4(CC(O)C(C)C(C(C)/C=C(\C)C(=O)C(C)CC(C)C(=O)O)O4)O3)OC3(OC(C4OC(O)(CO)C(C)CC4C)CC3C)C2C)OC1C (centres unmarked) [Dianemycin Sodium Salt, reference compound]										7.2 mg/kg			
